Reference: the supplement of paper PMC10307832

Legend:
Assay in all cases: relative viability (nuclei count vs DMSO), 5 days (fraction); higher = more cells survive
201T = tested on: 201T
In short: (§1)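 Dosing by pin tool came one day after lung cancer cell lines were seeded in 1536-well plates, using either one drug or a fixed anchor-drug dose plus five library-drug doses (not always all listed) in √10 steps. After 5 days, nuclei were counted on 4× images. Relative viability is treated-well nuclei count divided by vehicle-well nuclei count, and values are medians of duplicate plates.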

ABC-1 = tested on: ABC-1
In short: as §1

HCC-366 = tested on: HCC-366
In short: as §1

HCC-44 = tested on: HCC-44
In short: as §1

HCC-78 = tested on: HCC-78
In short: as §1

LK-2 = tested on: LK-2
In short: as §1

LOU-NH91 = tested on: LOU-NH91
In short: as §1

NCI-H1437 = tested on: NCI-H1437
In short: as §1

NCI-H1648 = tested on: NCI-H1648
In short: as §1

NCI-H1651 = tested on: NCI-H1651
In short: as §1

NCI-H1734 = tested on: NCI-H1734
In short: as §1

NCI-H1944 = tested on: NCI-H1944
In short: as §1

NCI-H2023 = tested on: NCI-H2023
In short: as §1

NCI-H2085 = tested on: NCI-H2085
In short: as §1

NCI-H2087 = tested on: NCI-H2087
In short: as §1

NCI-H2170 = tested on: NCI-H2170
In short: as §1

NCI-H2228 = tested on: NCI-H2228
In short: as §1

NCI-H322M = tested on: NCI-H322M
In short: as §1

NCI-H596 = tested on: NCI-H596
In short: as §1

NCI-H647 = tested on: NCI-H647
In short: as §1

PC-14 = tested on: PC-14
In short: as §1

PC-3 [JPC-3] = tested on: PC-3 [JPC-3]
In short: as §1

SK-LU-1 = tested on: SK-LU-1
In short: as §1

**Q.** Which results are given for `Nc1cccc2c1CN(C1CCC(=O)NC1=O)C2=O` (centres undefined) [Lenalidomide] + Cc1cc(Nc2cc(N3CCN(C)CC3)nc(Sc3ccc(NC(=O)C4CC4)cc3)n2)n[nH]1 [Tozasertib] (partner 0.1 µM)?
**A.** relative viability (201T; first compound 0.253 µM): 1.01; relative viability (201T; first compound 2.53 µM): 1.02; relative viability (201T; first compound 8 µM): 1.02; relative viability (ABC-1; first compound 0.253 µM): 0.199; relative viability (ABC-1; first compound 0.8 µM): 0.17; relative viability (ABC-1; first compound 2.53 µM): 0.184; relative viability (ABC-1; first compound 8 µM): 0.175; relative viability (HCC-366; first compound 0.253 µM): 0.14; relative viability (HCC-366; first compound 0.8 µM): 0.128; relative viability (HCC-366; first compound 2.53 µM): 0.154; relative viability (HCC-366; first compound 8 µM): 0.131; relative viability (HCC-44; first compound 0.253 µM): 0.886; relative viability (HCC-44; first compound 2.53 µM): 1.22; relative viability (HCC-44; first compound 8 µM): 1.12; relative viability (HCC-78; first compound 0.253 µM): 0.537; relative viability (HCC-78; first compound 0.8 µM): 0.44; relative viability (HCC-78; first compound 2.53 µM): 0.443; relative viability (HCC-78; first compound 8 µM): 0.49; relative viability (LK-2; first compound 0.253 µM): 0.175; relative viability (LK-2; first compound 0.8 µM): 0.197; relative viability (LK-2; first compound 2.53 µM): 0.164; relative viability (LK-2; first compound 8 µM): 0.135; relative viability (LOU-NH91; first compound 0.253 µM): 0.715; relative viability (LOU-NH91; first compound 0.8 µM): 0.737; relative viability (LOU-NH91; first compound 2.53 µM): 0.715; relative viability (LOU-NH91; first compound 8 µM): 0.73; relative viability (NCI-H1437; first compound 0.253 µM): 0.432; relative viability (NCI-H1437; first compound 0.8 µM): 0.443; relative viability (NCI-H1437; first compound 2.53 µM): 0.441; relative viability (NCI-H1437; first compound 8 µM): 0.47; relative viability (NCI-H1648; first compound 0.253 µM): 0.578; relative viability (NCI-H1648; first compound 0.8 µM): 0.317; relative viability (NCI-H1648; first compound 2.53 µM): 0.509; relative viability (NCI-H1648; first compound 8 µM): 0.599; relative viability (NCI-H1651; first compound 0.253 µM): 0.749; relative viability (NCI-H1651; first compound 0.8 µM): 0.772; relative viability (NCI-H1651; first compound 2.53 µM): 0.819; relative viability (NCI-H1651; first compound 8 µM): 0.815; relative viability (NCI-H1734; first compound 0.253 µM): 0.312; relative viability (NCI-H1734; first compound 0.8 µM): 0.271; relative viability (NCI-H1734; first compound 2.53 µM): 0.232; relative viability (NCI-H1734; first compound 8 µM): 0.238; relative viability (NCI-H1944; first compound 0.253 µM): 0.234; relative viability (NCI-H1944; first compound 0.8 µM): 0.278; relative viability (NCI-H1944; first compound 2.53 µM): 0.285; relative viability (NCI-H1944; first compound 8 µM): 0.232; relative viability (NCI-H2023; first compound 0.253 µM): 0.445; relative viability (NCI-H2023; first compound 0.8 µM): 0.403; relative viability (NCI-H2023; first compound 2.53 µM): 0.386; relative viability (NCI-H2023; first compound 8 µM): 0.519; relative viability (NCI-H2085; first compound 0.253 µM): 0.819; relative viability (NCI-H2085; first compound 0.8 µM): 0.886; relative viability (NCI-H2085; first compound 2.53 µM): 0.938; relative viability (NCI-H2085; first compound 8 µM): 0.878; relative viability (NCI-H2087; first compound 0.253 µM): 0.24; relative viability (NCI-H2087; first compound 0.8 µM): 0.226; relative viability (NCI-H2087; first compound 2.53 µM): 0.277; relative viability (NCI-H2087; first compound 8 µM): 0.242; relative viability (NCI-H2170; first compound 0.253 µM): 0.612; relative viability (NCI-H2170; first compound 0.8 µM): 0.608; relative viability (NCI-H2170; first compound 2.53 µM): 0.747; relative viability (NCI-H2170; first compound 8 µM): 0.753; relative viability (NCI-H2228; first compound 0.253 µM): 0.288; relative viability (NCI-H2228; first compound 0.8 µM): 0.338; relative viability (NCI-H2228; first compound 2.53 µM): 0.283; relative viability (NCI-H2228; first compound 8 µM): 0.345; relative viability (NCI-H322M; first compound 0.253 µM): 0.471; relative viability (NCI-H322M; first compound 0.8 µM): 0.566; relative viability (NCI-H322M; first compound 2.53 µM): 0.49; relative viability (NCI-H322M; first compound 8 µM): 0.439; relative viability (NCI-H596; first compound 0.253 µM): 0.755; relative viability (NCI-H596; first compound 2.53 µM): 0.904; relative viability (NCI-H596; first compound 8 µM): 0.774; relative viability (NCI-H647; first compound 0.253 µM): 0.339; relative viability (NCI-H647; first compound 0.8 µM): 0.27; relative viability (NCI-H647; first compound 2.53 µM): 0.26; relative viability (NCI-H647; first compound 8 µM): 0.355; relative viability (PC-14; first compound 0.253 µM): 0.629; relative viability (PC-14; first compound 0.8 µM): 0.696; relative viability (PC-14; first compound 2.53 µM): 0.706; relative viability (PC-14; first compound 8 µM): 0.738; relative viability (PC-3 [JPC-3]; first compound 0.253 µM): 0.909; relative viability (PC-3 [JPC-3]; first compound 0.8 µM): 0.899; relative viability (PC-3 [JPC-3]; first compound 2.53 µM): 1.03; relative viability (PC-3 [JPC-3]; first compound 8 µM): 0.955; relative viability (SK-LU-1; first compound 0.253 µM): 0.376; relative viability (SK-LU-1; first compound 0.8 µM): 0.304; relative viability (SK-LU-1; first compound 2.53 µM): 0.399; relative viability (SK-LU-1; first compound 8 µM): 0.392
